The target in one assay is T1, yeast alcohol dehydrogenase (Saccharomyces cerevisiae, UniProt P00330).
T1 sequence (P00330 1-348): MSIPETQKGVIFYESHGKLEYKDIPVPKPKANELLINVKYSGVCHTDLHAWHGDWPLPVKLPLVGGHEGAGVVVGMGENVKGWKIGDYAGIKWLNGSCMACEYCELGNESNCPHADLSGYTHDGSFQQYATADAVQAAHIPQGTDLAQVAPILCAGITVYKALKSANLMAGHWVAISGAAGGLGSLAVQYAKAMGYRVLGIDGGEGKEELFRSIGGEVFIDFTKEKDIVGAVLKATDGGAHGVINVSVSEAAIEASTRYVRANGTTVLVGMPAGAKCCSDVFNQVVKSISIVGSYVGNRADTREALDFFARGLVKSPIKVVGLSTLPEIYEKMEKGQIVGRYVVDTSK
The assay can be described thus: Enzymatic reducibility with the reaction catalyzed by yeast alcohol dehydrogenase. It counts as biochemical. Particulars: 0.1M tris/HCl pH 8.2, room temperature, 0.1M ethanol, 7 mM semicarbazide/HCl, 0.1 mM coenzyme free or polymer-bound, 0.3 mg alcohol dehydrogenase. Here is the method: The enzymatic reducibility of the water-soluble polymer-bound N^6 -(2-aminoethyl)-NAD derivatives was determined compared with N^6 -(2-aminoethyl)-NAD with the reaction catalyzed by yeast alcohol dehydrogenase under the following conditions:
0.1M tris/HCl, pH 8.2, room temperature
0.1 mM N^6 -(2-aminoethyl)-NAD
0.3 mg alcohol dehydrogenase
Note: For N^6 -(2-aminoethyl)-NAD and N^6 -(2-aminoethyl)-NADH derivatives ε267 =21000 M^-1 cm^-1 and ε340 =6220 M^-1 cm^-1 as extiction coefficients.
`NCCNc1ncnc2c1ncn2[C@@H]1O[C@H](COP(=O)(O)OP(=O)([O-])OC[C@H]2O[C@@H]([n+]3cccc(C(N)=O)c3)[C@H](O)[C@@H]2O)[C@@H](O)[C@H]1O` [N^6-(2-aminoethyl)-NAD] yielded a Reducibility % of 100%.
Still for that read-out and setting: then dextran-N^6 -(2-aminoethyl)-NAD, with 90%; and “poly-(divinyl ether/maleic acid)-N^6 -(2-aminoethyl)-NAD”, with 60%.
As for “poly-(ethylene/maleic acid)-N^6 -(2-aminoethyl)-NAD”, the Reducibility % is reported as 60%.
On the same count and under the same terms, in the case of “poly-(methylvinyl ether/maleic acid)-N^6 -(2-aminoethyl)-NAD” it was 70%.
As for “polyethylene glycol N^6 -(2-aminoethyl)-NAD”, the Reducibility % worked out at 90%.
Regarding “polyvinylpyrrolidone N^6 -(2-aminoethyl)-NAD”, the Reducibility % came to 90%.

The assay is the same for the next values; noted with them: catalyzed by beer yeast alcohol dehydrogenase.
Regarding `NCCNc1ncnc2c1ncn2[C@@H]1O[C@H](COP(=O)(O)OP(=O)([O-])OC[C@H]2O[C@@H]([n+]3cccc(C(N)=O)c3)[C@H](O)[C@@H]2O)[C@@H](O)[C@H]1O` [N^6-(2-aminoethyl)-NAD], the “Enzymatic reduction to N^6 -(2-aminoethyl)-NADH (in words)” value was “Quantitative reduction”.

A further assay concerns the target T2, yeast glucose 6-phosphate dehydrogenase (Saccharomyces cerevisiae, UniProt P11412).
T2 sequence (P11412 1-505): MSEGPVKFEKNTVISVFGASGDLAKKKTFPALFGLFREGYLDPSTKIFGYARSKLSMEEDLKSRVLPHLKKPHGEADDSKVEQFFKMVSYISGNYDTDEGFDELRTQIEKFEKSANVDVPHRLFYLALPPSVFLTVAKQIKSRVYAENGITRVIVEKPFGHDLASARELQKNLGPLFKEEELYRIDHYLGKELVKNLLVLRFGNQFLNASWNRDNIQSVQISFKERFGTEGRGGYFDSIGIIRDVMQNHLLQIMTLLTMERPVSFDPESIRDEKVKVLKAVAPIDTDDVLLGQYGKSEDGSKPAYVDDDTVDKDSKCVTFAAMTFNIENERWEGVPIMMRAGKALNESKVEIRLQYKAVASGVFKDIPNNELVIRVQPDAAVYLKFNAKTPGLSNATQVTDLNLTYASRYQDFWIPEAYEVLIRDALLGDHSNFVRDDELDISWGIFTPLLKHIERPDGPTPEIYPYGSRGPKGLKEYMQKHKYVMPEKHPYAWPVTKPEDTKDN
The assay can be described thus: Enzymatic reducibility with the reaction catalyzed by yeast glucose 6-phosphate dehydrogenase. It counts as biochemical. As to conditions: 0.05M triethanolamine/HCl pH 8.0, room temperature, 5.5 mM MgCl2, 4.5 mM glucose-6-phosphate, 0.1 mM coenzyme free or polymer-bound, 30 μg glucose-6-phosphate dehydrogenase. Here is the method:
The enzymatic reducibility of the water-soluble polymer-bound N^6 -(2-aminoethyl)-NADP derivatives was determined compared with N^6 -(2-aminoethyl)-NADP with the reaction catalyzed by yeast glucose 6-phosphate dehydrogenase under the following conditions:
0.05M triethanolamine/HCl, pH 8.0, room temperature
4.5 mM glucose-6-phosphate
0.1 mM N^6 -(2-aminoethyl)-NADP (free or polymer-bound)
30 μg glucose-6-phosphate dehydrogenase
Note: For the N^6 -(2-aminoethyl)NADP and ^6 -(2-aminoethyl)-NADPH derivatives ε267 =21000 M^-1 cm^-1 and ε340 =6220 M^-1 cm^-1 were assumed as extinction coefficients.
On to `NCCNc1ncnc2c1ncn2[C@@H]1O[C@H](COP(=O)(O)OP(=O)([O-])OC[C@H]2O[C@@H]([n+]3cccc(C(N)=O)c3)[C@H](O)[C@@H]2O)[C@@H](O)[C@H]1OP(=O)(O)O` [N^6-(2-aminoethyl)-NADP], for which the Reducibility % is 100%.
As for PEG (Mr =4000)-N^6 -(2-aminoethyl)-NADP, the Reducibility % was 95%.
Same read-out and setting: then “PEG (Mr =20000)-N^6 -(2-aminoethyl)-NADP”, with 95%.
With “poly-(divinyl ether/maleic acid)-N^6 -(2-aminoethyl)-NADP”, the Reducibility % is reported as 63%.
Same read-out and setting: in the case of “poly-(ethylene/maleic acid)-N^6 -(2-aminoethyl)-NADP” it was 50%; in that of “poly-(methylvinyl ether/maleic acid)-N^6 -(2-aminoethyl)-NADP”, 60%.

The same assay, now with this note: catalyzed by beer yeast glucose-6-phosphate dehydrogenase.
`NCCNc1ncnc2c1ncn2[C@@H]1O[C@H](COP(=O)(O)OP(=O)([O-])OC[C@H]2O[C@@H]([n+]3cccc(C(N)=O)c3)[C@H](O)[C@@H]2O)[C@@H](O)[C@H]1OP(=O)(O)O` [N^6-(2-aminoethyl)-NADP]: the “Enzymatic reduction to N^6 -(2-aminoethyl)-NADPH (in words)” value is listed as “Quantitative reduction”.

(Values after patent US5399681A, “Method for preparing N^6 -substituted NAD, NADP or FAD” (Gesellschaft fur Biotechnologische Forschung mbH (GBF), priority 1986, dated 1995).)
